Patent US9040717B2, “Pyrazole-amide compounds and pharmaceutical use thereof” (JAPAN TOBACCO INC., priority 2013, dated 2015)
pIC50: −log10 of the molar value.

Legend:
human PDHK1 (hPDHK1) = human PDHK1 (hPDHK1) (Homo sapiens (Human), UniProt Q15118); test: Inhibitory action of PDHK1 activity in vitro (residual PDH activity after kinase reaction); assay type: biochemical
Method: (§1) The inhibitory action of PDHK activity was assessed indirectly by measuring the residual PDH activity after kinase reaction in the presence of a test compound.
The recombinant construct was transformed into Escherichia coli (DH5α-TOYOBO). The recombinant clones were identified, and plasmid DNA was isolated and subjected to the DNA sequence analysis. One clone which had the expected nucleic acid sequence was selected for expression work.
The Escherichia coli were grown to an optical density 0.6 ([…]) at 30° C. Protein expression was induced by the addition of 500 μmol/L isopropyl-β-thiogalactopyranoside. The Escherichia coli were cultured at 30° C. for 5 hr and harvested by centrifugation. Resuspension of the Escherichia coli paste was disrupted by a microfluidizer.
The eluted fractions containing FLAG-Tagged protein were pooled, dialyzed against 20 mmol/L HEPES-NaOH, 150 mmol/L sodium chloride, 0.5 mmol/L ethylenediamine tetraacetic acid (EDTA), 1% ethylene glycol, and 0.1% Pluronic F-68 (pH 8.0), and preserved at −80° C.
The mixture was incubated at room temperature for 90 min, and the residual PDH activity was measured.
The absorbance at 340 nm before and after PDH reaction was measured using a microplate reader to detect NADH produced by the PDH reaction.

human PDHK2 (hPDHK2) = human PDHK2 (hPDHK2) (Homo sapiens (Human), UniProt Q15119); test: Inhibitory action of PDHK2 activity in vitro (residual PDH activity after kinase reaction); assay type: biochemical
Method: as §1
In the case of human PDHK2 (hPDHK2, Genbank Accession No. BC040478.1), modified hPDHK2 cDNA wherein FLAG-Tag sequence was added to the N terminus of hPDHK2 cDNA clone (pReceiver-M01/PDK2-GeneCopoeia) was prepared by PCR and cloned into a vector (pET17b-Novagen). The recombinant construct was transformed into Escherichia coli (DH5α-TOYOBO). The recombinant clones were identified, and plasmid DNA was isolated and subjected to the DNA sequence analysis. One clone which had the expected nucleic acid sequence was selected for expression work.
For expression of hPDHK2 activity, Escherichia coli strain BL21(DE3) cells (Novagen) were transformed with the pET17b vector containing modified hPDHK2 cDNA. The Escherichia coli were grown to an optical density 0.6 ([…]) at 30° C. Protein expression was induced by the addition of 500 μmol/L isopropyl-β-thiogalactopyranoside. The Escherichia coli were cultured at 30° C. for 5 hr and harvested by centrifugation. Resuspension of the Escherichia coli paste was disrupted by a microfluidizer. FLAG-Tagged protein was purified using FLAG affinity gel. […]
0.05 U/mL PDH and 0.8 μg/mL hPDHK2 were mixed in a buffer (50 mmol/L 3-morpholinopropanesulfonic acid (pH 7.0), 20 mmol/L dipotassium hydrogen phosphate, 60 mmol/L potassium chloride, 2 mmol/L magnesium chloride, 0.4 mmol/L EDTA, and 0.2% Pluronic F-68, 2 mmol/L dithiothreitol), and the mixture was incubated at 4° C. overnight to obtain a PDH/hPDHK2 complex. […] The mixture was incubated at room temperature for 90 min, and the residual PDH activity was measured. The absorbance at 340 nm before and after PDH reaction was measured using a microplate reader to detect NADH produced by the PDH reaction. The hPDHK2 inhibition rate (%) of the test compound was calculated from the formula [{(PDH activity of test compound−PDH activity of control)/PDH activity of blank−PDH activity of control)}×100].

[1] = test system: Zucker Diabetic Fatty rats; test: Effect of repeated administration on HbA1c in ZDF rats; assay type: in vivo, rat; conditions: 1 mg/kg oral once daily, day 14 of administration, mean ± S.D. (n = 10), *p < 0.05 vs. vehicle group
Method: Zucker Diabetic Fatty rats (male, 7-week-old, CHARLES RIVER LABORATORIES JAPAN INC.), an animal model for type 2 diabetes, given a purified diet (5.9% fat diet, Oriental Yeast Co., Ltd.) were allocated to the vehicle group and the test compound groups so that no bias occurred in the plasma glucose and insulin levels, HbAlc levels and body weights. Repeated oral doses of the test compound (1 mg/kg/5 mL) were administered to the rats once daily at 3 hr before the dark period. A 0.5% aqueous methylcellulose solution was orally administered in the same manner to the rats of the vehicle group. On day 14 of administration, blood samples were collected from the tail vein and HbAlc level (%) was measured. Statistical analysis was performed by Dunnett's test. Values of p<0.05 were cosidered statistically significant.

Sequence of human PDHK1 (hPDHK1) (Q15118 29-436): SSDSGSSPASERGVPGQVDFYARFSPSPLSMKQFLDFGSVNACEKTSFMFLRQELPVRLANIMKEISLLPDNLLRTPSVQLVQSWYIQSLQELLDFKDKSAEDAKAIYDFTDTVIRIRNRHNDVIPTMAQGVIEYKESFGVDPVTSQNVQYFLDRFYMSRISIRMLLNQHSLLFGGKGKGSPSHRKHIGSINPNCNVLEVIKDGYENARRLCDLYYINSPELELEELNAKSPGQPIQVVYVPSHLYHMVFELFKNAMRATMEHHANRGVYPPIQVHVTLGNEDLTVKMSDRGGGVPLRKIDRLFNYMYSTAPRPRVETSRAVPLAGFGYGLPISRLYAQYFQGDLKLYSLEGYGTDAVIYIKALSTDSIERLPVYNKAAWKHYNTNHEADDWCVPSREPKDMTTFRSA

| Compound | pIC50 (human PDHK1 (hPDHK1)) | pIC50 (human PDHK2 (hPDHK2)) | HbA1c (%) [1] |
| --- | --- | --- | --- |
| CC(C)(O)CCOc1cc(-c2cnn(C(C)(C)C(N)=O)c2)c2c(c1)[C@@](O)(C(F)(F)F)c1ccccc1-2 [Compound (2), 2-{4-[(9R)-9-hydroxy-2-(3-hydroxy-3-methylbutyloxy)-9-(trifluoromethyl)-9H-fluoren-4-yl]-1H-pyrazol-1-yl}-2-methylpropanamide] | 8.33 | 8.34 | 3.2 ± 0.1* % |
| CC(C)(O)CCCOc1cc(-c2cnn(C(C)(C)C(N)=O)c2)c2c(c1)[C@@](O)(C(F)(F)F)c1ccccc1-2 [Compound (3), 2-{4-[(9R)-9-hydroxy-2-(4-hydroxy-4-methylpentyloxy)-9-(trifluoromethyl)-9H-fluoren-4-yl]-1H-pyrazol-1-yl}-2-methylpropanamide] | 8.46 | 8.38 | 3.4 ± 0.1* % |
